#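 Growth conditions: 96-well plates. Treatment: test compound, 48 hours, 5 concentrations. Analysis: linear interpolation between bracketing concentrations; unreached endpoints set to highest concentration. Definition used: TGI = concentration required for complete inhibition of growth.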
# What was measured:
# Test in all cases: NCI tumour cell line growth inhibition, 48 h
# A498 renal = tested on: A498 renal
# CCRF-CEM leukemia = tested on: CCRF-CEM leukemia
# HS 578T breast = tested on: HS 578T breast
# LOX IMVI melanoma = tested on: LOX IMVI melanoma
# MOLT-4 leukemia = tested on: MOLT-4 leukemia
# NCI-H226 lung = tested on: NCI-H226 lung
# NCI-H460 lung = tested on: NCI-H460 lung
# OVCAR-3 ovarian = tested on: OVCAR-3 ovarian
# OVCAR-8 ovarian = tested on: OVCAR-8 ovarian
# PC-3 prostate = tested on: PC-3 prostate
# SK-MEL-28 melanoma = tested on: SK-MEL-28 melanoma
# SK-MEL-5 melanoma = tested on: SK-MEL-5 melanoma
# SK-OV-3 ovarian = tested on: SK-OV-3 ovarian
# UACC-257 melanoma = tested on: UACC-257 melanoma
# UO-31 renal = tested on: UO-31 renal
# T-47D breast = tested on: T-47D breast
SMILES,TGI (A498 renal) [µM],TGI (CCRF-CEM leukemia) [µM],TGI (HS 578T breast) [µM],TGI (LOX IMVI melanoma) [µM],TGI (MOLT-4 leukemia) [µM],TGI (NCI-H226 lung) [µM],TGI (NCI-H460 lung) [µM],TGI (OVCAR-3 ovarian) [µM],TGI (OVCAR-8 ovarian) [µM],TGI (PC-3 prostate) [µM],TGI (SK-MEL-28 melanoma) [µM],TGI (SK-MEL-5 melanoma) [µM],TGI (SK-OV-3 ovarian) [µM],TGI (UACC-257 melanoma) [µM],TGI (UO-31 renal) [µM],TGI (T-47D breast) [µM]
C/C(Cc1ccc2c(c1)OCO2)=N\NC(=O)C(C)Sc1nnc(SC(C)C(=O)N/N=C(\C)Cc2ccc3c(c2)OCO3)s1 (configuration not stated),> 100,> 100,> 100,> 100,> 100,> 100,> 100,> 100,> 100,> 100,> 100,> 100,> 100,> 100,> 100,
O=C(C/C=C/c1ccccc1)c1ccccc1,36,64.8,58.6,30.3,61.6,66.6,60.6,> 100,49.1,,53.6,40.8,> 100,72.1,28.2,42.7
[N-]=[N+]=CC(=O)CCC(=O)N(c1ccccc1)c1ccccc1,> 10,> 10,,> 10,> 10,> 10,> 10,> 10,> 10,> 10,> 10,> 10,> 10,> 10,> 10,> 10
CCCNC(=O)N(C)C(=O)N1N=C(c2ccccc2)C1c1ccccc1 (configuration not stated),> 100,75.8,,> 100,> 100,> 100,,> 100,> 100,> 100,> 100,> 100,> 100,> 100,> 100,> 100
CC(C)[C@@H](C)[C@@]1(C)C[C@@H]1[C@@H](C)[C@H]1CC[C@@H]([C@@H]2CC=C3C[C@@H](O)CC[C@]3(C)C2=O)[C@]1(C)CCO,28.7,,25.2,15.4,19.3,26.8,3.32,25.6,25.5,21.8,20.1,26.4,,27.4,28.5,
O=C1/C(=C/c2ccc(Cl)cc2)CSC/C1=C\c1ccc(Cl)cc1,,63.9,,5.3,9,5.59,30.5,8.11,13.8,16,5.51,10.6,16.5,5.08,3.93,23.2
CCOC(=O)C1(Br)S(=O)(=O)OCCOS1(=O)=O,> 100,> 100,,> 100,> 100,> 100,> 100,> 100,> 100,,> 100,> 100,> 100,> 100,> 100,
O=c1c2c(c1=O)-c1ccccc1CN2,> 100,> 100,,> 100,> 100,> 100,> 100,> 100,> 100,,> 100,> 100,> 100,> 100,> 100,
CC1(C)OC(=O)C(Cc2ccccc2)(Cc2ccccc2)C(=O)O1,,> 100,> 100,> 100,> 100,> 100,> 100,,> 100,> 100,> 100,> 100,> 100,> 100,> 100,> 100
COC(=O)C1=C(CCC[C@H](C)O[Si](C)(C)C(C)(C)C)NC(=O)N2[C@@H](CCO)CC[C@H]12,31.1,,,32.7,> 100,32.4,47.4,27.9,29.5,,35.5,21,30.4,28.9,29.7,32.9
COc1ccc(/C(=N\Nc2ccccn2)c2ccccn2)cc1,> 100,> 100,18.4,,> 58.3,,3.08,19.5,11.8,> 100,> 53,11.7,10.1,17.4,0.629,
COc1cccc(NC(=O)C(=O)C2C=CCS2(=O)=O)c1 (configuration not stated),> 100,> 100,,> 100,> 100,> 100,> 100,> 100,> 100,,> 100,> 100,> 100,> 100,> 100,
Cc1cccc2c1c(=O)c1c(O)cc(O)cc1n2C,> 100,> 100,> 100,> 100,> 100,> 100,> 100,> 100,> 100,> 100,> 100,> 100,> 100,> 100,,
CCCNC(=O)N1CC(CN2CCN(c3ccccc3)CC2)O/C1=N/C(=O)Nc1ccccc1 (configuration not stated),> 100,,> 100,> 100,> 100,,> 100,,,> 100,> 100,94.1,> 100,> 100,> 100,> 100
O=P(O)(CN1CCN(CP(=O)(O)c2ccccc2)CCN(CP(=O)(O)c2ccccc2)CC1)c1ccccc1,88.6,> 100,,> 100,> 100,> 100,> 100,> 100,> 100,,> 100,> 100,> 100,,> 100,> 100
CC1=CCC2CC1NC(=O)CCOCCC(=O)NC2(C)C (configuration not stated),> 100,> 100,,> 100,> 100,> 100,> 100,,> 100,> 100,> 100,> 100,> 100,> 100,> 100,
